The record followed here is patent US20060134286A1, “Gallocatechin gallate-containing composition” (Suntory Limited, priority 2002, published 2006).

The subject of the assay is Streptococcus mutans (MT8148R). Description: Antibacterial activity against Streptococcus mutans (colony count after 1 hour contact with sample). The assay is classed as cell-based. Particulars: final concentration of the sample 1 mg/mL; 37° C. for 1 hour; colonies counted on MS agar medium after 2 days. On the procedure:
Streptococcus mutans (MT8148R) was cultured in a brain heart infusion medium (BHI, manufactured by Difco) at 37° C. for 18 hours. After collection of the cells by centrifugation, the precipitate was washed three times with a phosphate buffer solution (PBS, pH 6.8). Then the cells were suspended to give an absorbance of 0.5 at 550 nm. Thus, about 2×10^7 colonies per mL (expressed in colony forming unit: CFU) were formed . Next, an equal amount of a previously prepared sample solution was added to the suspension and the resultant mixture was allowed to stand at 37° C. for 1 hour. 0.1 mL of this liquid mixture or the same mixture seriously 10-fold diluted was sowed on a Mitis salivarius agar medium (MS agar medium, manufactured by Difco). After culturing at 37° C. for 2 days, the colonies thus formed were counted. The antibacterial activity was indicated in the logarithm of CFU of test group/CFU of control lot (i.e., the reducing ratio).
The mixing ratio of EGCG to GCG (manufactured by Sigma) was varied so as to adjust the final concentration of the sample to 1 mg/mL and thus the antibacterial activity was examined. […]

`O=C(O[C@@H]1Cc2c(O)cc(O)cc2O[C@H]1c1cc(O)c(O)c(O)c1)c1cc(O)c(O)c(O)c1` [GCG, gallocatechin gallate]: the “Antibacterial activity (logarithm of CFU of test group/CFU of control lot, the reducing ratio)” value is −3.17.
To (−)-epigallocatechin gallate [EGCG] belongs −3.50.
